Measured values from patent US8802597B2, “Herbicidal pyrimidines” (E I du Pont de Nemours and Company, priority 2003, dated 2014).
Where two headings read alike, the source gives them in different places.

Columns and labels:
Type in all cases: in vivo
[1] = tested on: common ragweed (Ambrosia elatior); test: Test C pre/postemergence; details: Ambrosia artemisiifolia; for pest or weed control at 62 g/ha: 62 g ai/ha; for pest or weed control at 125 g/ha: 125 g ai/ha; for pest or weed control at 250 g/ha: 250 g ai/ha; for pest or weed control at 500 g/ha: 500 g ai/ha
Method in brief: (§1)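 We sprayed seeded pots preemergence and 2–18 cm seedlings postemergence with test chemicals in a non-phytotoxic solvent mixture including surfactant. Greenhouse plants were visually compared with untreated controls at 12 to 14 days and scored 0 (no effect) to 100 (complete control).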

[2] = tested on: johnsongrass (Sorghum halepense); test: Test C pre/postemergence; details: Sorghum halepense; for pest or weed control at 62 g/ha: 62 g ai/ha; for pest or weed control at 125 g/ha: 125 g ai/ha; for pest or weed control at 250 g/ha: 250 g ai/ha; for pest or weed control at 500 g/ha: 500 g ai/ha
Method in brief: as §1

[3] = tested on: woolly cupgrass (Eriochloa villosa); test: Test C pre/postemergence; details: Eriochloa villosa; for pest or weed control at 62 g/ha: 62 g ai/ha; for pest or weed control at 125 g/ha: 125 g ai/ha; for pest or weed control at 250 g/ha: 250 g ai/ha; for pest or weed control at 500 g/ha: 500 g ai/ha
Method in brief: as §1

[4] = tested on: pigweed (Amaranthus retroflexus); test: Test C pre/postemergence; details: Amaranthus retroflexus; for pest or weed control at 62 g/ha: 62 g ai/ha; for pest or weed control at 125 g/ha: 125 g ai/ha; for pest or weed control at 250 g/ha: 250 g ai/ha; for pest or weed control at 500 g/ha: 500 g ai/ha
Method in brief: as §1

[5] = tested on: yellow nutsedge (Cyperus esculentus); test: Test C pre/postemergence; details: Cyperus; for pest or weed control at 62 g/ha: 62 g ai/ha; for pest or weed control at 125 g/ha: 125 g ai/ha; for pest or weed control at 250 g/ha: 250 g ai/ha; for pest or weed control at 500 g/ha: 500 g ai/ha
Method in brief: as §1

kochia (Kochia scoparia) = test: Test C pre/postemergence; details: Bassia scoparia; for pest or weed control at 62 g/ha: 62 g ai/ha; for pest or weed control at 125 g/ha: 125 g ai/ha; for pest or weed control at 250 g/ha: 250 g ai/ha; for pest or weed control at 500 g/ha: 500 g ai/ha
Method in brief: as §1

[6] = tested on: morningglory (Ipomoea coccinea); test: Test C pre/postemergence; details: Ipomoea; for pest or weed control at 62 g/ha: 62 g ai/ha; for pest or weed control at 125 g/ha: 125 g ai/ha; for pest or weed control at 250 g/ha: 250 g ai/ha; for pest or weed control at 500 g/ha: 500 g ai/ha
Method in brief: as §1

[7] = tested on: giant foxtail (Setaria faberii); test: Test C pre/postemergence; details: Setaria faberi; for pest or weed control at 125 g/ha: 125 g ai/ha; for pest or weed control at 500 g/ha: 500 g ai/ha; for pest or weed control at 62 g/ha: 62 g ai/ha; for pest or weed control at 250 g/ha: 250 g ai/ha
Method in brief: as §1

[8] = tested on: Surinam grass (Brachiaria decumbens); test: Test C pre/postemergence; details: Urochloa decumbens; for pest or weed control at 125 g/ha: 125 g ai/ha; for pest or weed control at 500 g/ha: 500 g ai/ha; for pest or weed control at 62 g/ha: 62 g ai/ha; for pest or weed control at 250 g/ha: 250 g ai/ha
Method in brief: as §1

[9] = tested on: common (oilseed) sunflower (Helianthus annuus); test: Test C pre/postemergence; details: Helianthus annuus, pre-emergence, Preemergence, read-out: Plant response rating, Sunflower
Method in brief: as §1

soybean (Glycine max) = test: Test C pre/postemergence; details: Glycine max; for plant injury at 62 g/ha: 62 g ai/ha; for plant injury at 125 g/ha: 125 g ai/ha; for plant injury at 250 g/ha: 250 g ai/ha; for plant injury at 500 g/ha: 500 g ai/ha
Method in brief: as §1

[10] = tested on: chickweed (Stellaria media); test: Test C postemergence; details: Stellaria media, post-emergence
Method in brief: as §1

[11] = post-emergence, Postemergence, scale 0 to 100 (0 no effect, 100 complete control), read-out: Ragweed plant response rating
[12] = post-emergence, Postemergence, scale 0 to 100, read-out: Plant response rating, Ragweed
[13] = pre-emergence, Preemergence, scale 0 to 100, read-out: Plant response rating, Ragweed
[14] = post-emergence, Postemergence, scale 0 to 100 (0 no effect, 100 complete control), read-out: Johnsongrass plant response rating
[15] = post-emergence, Postemergence, scale 0 to 100, read-out: Plant response rating, Johnsongrass
[16] = pre-emergence, Preemergence, scale 0 to 100, read-out: Plant response rating, Johnsongrass
[17] = post-emergence, Postemergence, scale 0 to 100 (0 no effect, 100 complete control), read-out: Cupgrass, Woolly plant response rating
[18] = post-emergence, Postemergence, scale 0 to 100, read-out: Plant response rating, Cupgrass, Woolly
[19] = pre-emergence, Preemergence, scale 0 to 100, read-out: Plant response rating, Cupgrass, Woolly
[20] = post-emergence, Postemergence, scale 0 to 100 (0 no effect, 100 complete control), read-out: Pigweed plant response rating
[21] = post-emergence, Postemergence, scale 0 to 100, read-out: Plant response rating, Pigweed
[22] = pre-emergence, Preemergence, scale 0 to 100, read-out: Plant response rating, Pigweed
[23] = post-emergence, Postemergence, scale 0 to 100 (0 no effect, 100 complete control), read-out: Nutsedge, Yellow plant response rating
[24] = post-emergence, Postemergence, scale 0 to 100, read-out: Plant response rating, Nutsedge, Yellow
[25] = pre-emergence, Preemergence, scale 0 to 100, read-out: Plant response rating, Nutsedge, Yellow
[26] = post-emergence, Postemergence, scale 0 to 100 (0 no effect, 100 complete control), read-out: Kochia plant response rating
[27] = post-emergence, Postemergence, scale 0 to 100, read-out: Plant response rating, Kochia
[28] = pre-emergence, Preemergence, scale 0 to 100, read-out: Plant response rating, Kochia
[29] = post-emergence, Postemergence, scale 0 to 100 (0 no effect, 100 complete control), read-out: Morningglory plant response rating
[30] = post-emergence, Postemergence, scale 0 to 100, read-out: Plant response rating, Morningglory
[31] = pre-emergence, Preemergence, scale 0 to 100, read-out: Plant response rating, Morningglory
[32] = post-emergence, Postemergence, scale 0 to 100 (0 no effect, 100 complete control), read-out: Foxtail, Giant plant response rating
[33] = post-emergence, Postemergence, scale 0 to 100, read-out: Plant response rating, Foxtail, Giant
[34] = pre-emergence, Preemergence, scale 0 to 100, read-out: Plant response rating, Foxtail, Giant
[35] = post-emergence, Postemergence, scale 0 to 100 (0 no effect, 100 complete control), read-out: Surinam Grass plant response rating
[36] = post-emergence, Postemergence, scale 0 to 100, read-out: Plant response rating, Surinam Grass
[37] = pre-emergence, Preemergence, scale 0 to 100, read-out: Plant response rating, Surinam Grass
[38] = post-emergence, Postemergence, scale 0 to 100 (0 no effect, 100 complete control), read-out: Soybean plant response rating
[39] = post-emergence, Postemergence, scale 0 to 100, read-out: Plant response rating, Soybean
[40] = pre-emergence, Preemergence, scale 0 to 100, read-out: Plant response rating, Soybean

## CNc1nc(C2CC2)nc(C(=O)OC)c1Br [Compound 5]
[1]; [11]
  pest or weed control at 62 g/ha: 90%
  pest or weed control at 125 g/ha: 95%
[1]; [12]
  pest or weed control at 250 g/ha: 95%
  pest or weed control at 500 g/ha: 100%
[1]; pre-emergence, Preemergence, scale 0 to 100, 0 no effect, 100 complete control, read-out: Plant response rating, Ragweed
  pest or weed control at 62 g/ha: 85%
[1]; [13]
  pest or weed control at 125 g/ha: 90%
  pest or weed control at 250 g/ha: 100%
  pest or weed control at 500 g/ha: 100%
[2]; [14]
  pest or weed control at 62 g/ha: 0%
  pest or weed control at 125 g/ha: 40%
[2]; [15]
  pest or weed control at 250 g/ha: 45%
  pest or weed control at 500 g/ha: 45%
[2]; pre-emergence, Preemergence, scale 0 to 100, 0 no effect, 100 complete control, read-out: Plant response rating, Johnsongrass
  pest or weed control at 62 g/ha: 5%
[2]; [16]
  pest or weed control at 125 g/ha: 20%
  pest or weed control at 250 g/ha: 60%
  pest or weed control at 500 g/ha: 70%
[3]; [17]
  pest or weed control at 62 g/ha: 5%
  pest or weed control at 125 g/ha: 50%
[3]; [18]
  pest or weed control at 250 g/ha: 50%
  pest or weed control at 500 g/ha: 70%
[3]; pre-emergence, Preemergence, scale 0 to 100, 0 no effect, 100 complete control, read-out: Plant response rating, Cupgrass, Woolly
  pest or weed control at 62 g/ha: 0%
[3]; [19]
  pest or weed control at 125 g/ha: 0%
  pest or weed control at 250 g/ha: 0%
  pest or weed control at 500 g/ha: 0%
[4]; [20]
  pest or weed control at 62 g/ha: 85%
  pest or weed control at 125 g/ha: 90%
[4]; [21]
  pest or weed control at 250 g/ha: 90%
  pest or weed control at 500 g/ha: 100%
[4]; pre-emergence, Preemergence, scale 0 to 100, 0 no effect, 100 complete control, read-out: Plant response rating, Pigweed
  pest or weed control at 62 g/ha: 60%
[4]; [22]
  pest or weed control at 125 g/ha: 90%
  pest or weed control at 250 g/ha: 100%
  pest or weed control at 500 g/ha: 100%
[5]; [23]
  pest or weed control at 62 g/ha: 0%
  pest or weed control at 125 g/ha: 0%
[5]; [24]
  pest or weed control at 250 g/ha: 0%
  pest or weed control at 500 g/ha: 0%
[5]; pre-emergence, Preemergence, scale 0 to 100, 0 no effect, 100 complete control, read-out: Plant response rating, Nutsedge, Yellow
  pest or weed control at 62 g/ha: 0%
[5]; [25]
  pest or weed control at 125 g/ha: 0%
  pest or weed control at 250 g/ha: 0%
  pest or weed control at 500 g/ha: 0%
Kochia (Kochia scoparia); [26]
  pest or weed control at 62 g/ha: 100%
  pest or weed control at 125 g/ha: 100%
Kochia (Kochia scoparia); [27]
  pest or weed control at 250 g/ha: 100%
  pest or weed control at 500 g/ha: 100%
Kochia (Kochia scoparia); pre-emergence, Preemergence, scale 0 to 100, 0 no effect, 100 complete control, read-out: Plant response rating, Kochia
  pest or weed control at 62 g/ha: 80%
Kochia (Kochia scoparia); [28]
  pest or weed control at 125 g/ha: 95%
  pest or weed control at 250 g/ha: 100%
  pest or weed control at 500 g/ha: 100%
[6]; [29]
  pest or weed control at 62 g/ha: 95%
  pest or weed control at 125 g/ha: 95%
[6]; [30]
  pest or weed control at 250 g/ha: 100%
  pest or weed control at 500 g/ha: 100%
[6]; pre-emergence, Preemergence, scale 0 to 100, 0 no effect, 100 complete control, read-out: Plant response rating, Morningglory
  pest or weed control at 62 g/ha: 50%
[6]; [31]
  pest or weed control at 125 g/ha: 80%
  pest or weed control at 250 g/ha: 90%
  pest or weed control at 500 g/ha: 100%
[7]; [32]
  pest or weed control at 125 g/ha: 30%
  pest or weed control at 62 g/ha: 20%
[7]; [33]
  pest or weed control at 500 g/ha: 60%
  pest or weed control at 250 g/ha: 50%
[7]; pre-emergence, Preemergence, scale 0 to 100, 0 no effect, 100 complete control, read-out: Plant response rating, Foxtail, Giant
  pest or weed control at 62 g/ha: 0%
[7]; [34]
  pest or weed control at 125 g/ha: 0%
  pest or weed control at 250 g/ha: 10%
  pest or weed control at 500 g/ha: 60%
[8]; [35]
  pest or weed control at 125 g/ha: 20%
  pest or weed control at 62 g/ha: 0%
[8]; [36]
  pest or weed control at 500 g/ha: 70%
  pest or weed control at 250 g/ha: 30%
[8]; pre-emergence, Preemergence, scale 0 to 100, 0 no effect, 100 complete control, read-out: Plant response rating, Surinam Grass
  pest or weed control at 62 g/ha: 0%
[8]; [37]
  pest or weed control at 125 g/ha: 0%
  pest or weed control at 250 g/ha: 0%
  pest or weed control at 500 g/ha: 0%
[9]; 62 g ai/ha, scale 0 to 100, 0 no effect, 100 complete control
  pest or weed control at 62 g/ha: 60%
[9]; 125 g ai/ha, scale 0 to 100
  pest or weed control at 125 g/ha: 90%
[9]; 250 g ai/ha, scale 0 to 100
  pest or weed control at 250 g/ha: 100%
[9]; 500 g ai/ha, scale 0 to 100
  pest or weed control at 500 g/ha: 100%
Soybean (Glycine max); [38]
  plant injury at 62 g/ha: 95%
  plant injury at 125 g/ha: 100%
Soybean (Glycine max); [39]
  plant injury at 250 g/ha: 100%
  plant injury at 500 g/ha: 100%
Soybean (Glycine max); pre-emergence, Preemergence, scale 0 to 100, 0 no effect, 100 complete control, read-out: Plant response rating, Soybean
  plant injury at 62 g/ha: 85%
Soybean (Glycine max); [40]
  plant injury at 125 g/ha: 90%
  plant injury at 250 g/ha: 98%
  plant injury at 500 g/ha: 100%
[10]; 62 g ai/ha, scale 0 to 100 (0 no effect, 100 complete control), read-out: Chickweed plant response rating
  pest or weed control at 62 g/ha: 0%
[10]; 125 g ai/ha, scale 0 to 100, read-out: Plant response rating, Chickweed
  pest or weed control at 125 g/ha: 10%
[10]; 250 g ai/ha, scale 0 to 100, read-out: Plant response rating, Chickweed
  pest or weed control at 250 g/ha: 20%
